Measured values as given in patent US7199285B2, “Modulation of abscisic acid signal transduction in plants” (University of California, San Diego, priority 2000, dated 2007).

How the values were obtained:
[1] = test system: Arabidopsis thaliana seeds; experiment: seed germination on minimum medium with ABA; assay type: in vivo; conditions: 0.3 μM ABA
Description: This was carried out using Arabidopsis lines (Columbia background, T3 seeds), which were transformed with a T-DNA (SK1015) (D. Weigel et al., Plant Physiol., 122:1003 (2000)), and plated on minimum medium (0.25×MS) with 0.3 μM ABA. After 4 days at 4° C., seeds were transferred to 28° C., continuous light. After 5 more days, germination was analyzed. Non-germinated seeds were transferred to soil and further analyzed.

abh1 mutant = experiment: seed germination, hypocotyl and root growth assays in the presence of hormones; assay type: in vivo, Arabidopsis thaliana; conditions: abh1, hormone concentrations from 10 nM to 100 μM
Description: Other hormone signaling mutants were analyzed in control experiments: axr1–3 (auxin insensitive) (C. Lincoln et al., Plant Cell, 2:1071(1990)), ein2-1 (ethylene insensitive) (J. M. Alonso et al., Science, 284:2148 (1999)), gai-1 (GA insensitive) (M. Koornneef et al., Physiol Plant., 65:33 (1985)), era1-2 (ABA hypersensitive) (S. Cutler et al., Science, 273:1239 (1996))), and jar1-1 (JA insensitive) (P. E. Staswick et al., Proc. Natl. Acad. Sci. U.S.A., 89:6837 (1992)).

guard cells [2] = experiment: time-resolved cameleon [Ca2+]cyt imaging of ABA-induced [Ca2+]cyt elevations; assay type: cell-based, Arabidopsis thaliana
Description: Due to the basal regulation of anion and K^+ channels in abh1 without addition of exogenous ABA, experiments were pursued to analyze whether mechanisms lying further upstream confer ABA hypersensitivity in abh1. […] Therefore we directly investigated whether abh1 modulates ABA-induced [Ca^2+]cyt elevations in time-resolved cameleon [Ca^2+]cyt imaging experiments (G. J. Allen et al, The Plant J., 19:735 (1999)). Stomata were opened by exposing plants for 12 hours to 95% humidity.

guard cells [3] = experiment: stomatal closure in response to ABA; assay type: cell-based, Arabidopsis thaliana; conditions: abh1, stomata opened 12 hours at 95% humidity
Description: ABH1 is expressed in guard cells. To determine whether ABH1 modulates early ABA signal transduction elements, stomatal closure in response to ABA was investigated. Stomata were opened by exposing plants for 12 hours to high humidity (95%). Under these conditions stomatal apertures were similar in wild-type and abh1 (2.03±0.19 μm, wild-type, n=60; 1.92±0.21 μm, abh1, n=60; P>0.38). Stomatal closure in abh1 was ABA hypersensitive compared to wild-type (P<0.001). When stomatal apertures were measured in leaves harvested directly from plants grown under lower humidity (40%), without exogenous ABA addition, stomatal apertures of abh1 were smaller than those of wild-type plants (P<0.001), possibly resulting from a hypersensitive response to endogenous ABA.

Compound	germination ([1]; abh1 mutant seeds)	germination ([1]; wild-type seeds)	phenotypic response (sensitivity) of abh1 mutant to hormone (abh1 mutant)	cells responding with one [Ca2+]cyt elevation (guard cells [2]; abh1, 0.5 μM ABA) [%]	cells showing multiple repetitive [Ca2+]cyt increases (guard cells [2]; abh1, 0.5 μM ABA) [%]	cells showing no response (guard cells [2]; abh1, 0.5 μM ABA) [%]	guard cells showing [Ca2+]cyt increases (guard cells [2]; abh1, 0.5 μM ABA) [%]	average peak increase of [Ca2+]cyt (guard cells [2]; wild-type, 0.5 μM ABA) [nM]	guard cells showing [Ca2+]cyt increase (typically only one) (guard cells [2]; wild-type, 0.5 μM ABA) [%]	guard cells showing no [Ca2+]cyt increase (guard cells [2]; wild-type, 0.5 μM ABA) [%]	stomatal closure sensitivity compared to wild-type (guard cells [3])
CC1=CC(=O)CC(C)(C)[C@@]1(O)/C=C/C(C)=C\C(=O)O [ABA, abscisic acid]	inhibited	allowed germination	showed phenotypic responses only to ABA	19	45	36	64	170 ± 25	44	56	hypersensitive
C=C1C[C@]23C[C@@]1(O)CC[C@H]2[C@@]12C=C[C@H](O)[C@@](C)(C(=O)O1)[C@H]2[C@@H]3C(=O)O [GA, gibberellic acid]			slightly reduced sensitivity								
